Here are results for two compounds from US11370769B2, “TRPC5 inhibitors and methods of using same” (BOARD OF REGENTS OF THE UNIVERSITY OF NEBRASKA, priority 2017, dated 2022).

The test system of one assay is caAT1R podocytes. Kind of assay: ROS assay in caAT1R expressing podocytes. The assay is classed as cell-based, mouse. As to conditions: 30 μM ML204, 30 μM AC1903 or 50 μM NSC23677 for 36 hours. The procedure: Podocyte culture and viral transduction: Immortalized mouse podocytes were cultured as previously described (10, 11). Podocyte viral transduction was performed using lentivirus as previously described (10, 11). Briefly, lentivirus production was carried out in HEK293T cells at 60% confluence, and viral particles were collected two days after transfection and purified by centrifugation at 1,000 rcf for 5 min. Purified lentivirus was frozen at −80° C. until further use. Podocytes were transduced with lentivirus after 7 days of differentiation, and assays were performed 5 days after viral transduction.
For experiments in FIG. 4B/C, pCDNA3.1 AT1AR-Δ324 (rat AT1R NM_030985.4) containing HA tag (Plasmid #45635, Addgene) underwent site directed mutagenesis (Agilent) to generate the N111S substitution. For FIG. 4B, differentiated podocytes were transduced with the AT1A-N111S/Δ324 construct in six-well plates. Six days after viral transduction, cells were treated with either vehicle, 30 μM ML204, 30 μM AC1903 or 50 μM NSC23677 for 36 hours. Intracellular production of ROS was measured using a cell-permeable fluorescent dye, 5-(and-6)-chloromethyl-2′,7′-dichlorodihydrofluorescein diacetate, acetyl ester (CM-H2DCFDA, Molecular Probes). Cells were incubated with 5 μM CM-H2DCFDA at 37° C. for 45 min in Hanks' balanced salt solution (HBSS). Cells were then collected, resuspended in HBSS, stained with propidium iodide and the fluorescence intensity was assessed by flow cytometry using MACSQuant Analyzer (Miltenyi Biotec, Bergisch Gladbach, Germany). Living cells, which were PI negative, were selected by FACS gating and the fluorescence of CM-H2DCFDA was recorded on the FL-1 channel (525 nm). For FIG. 4C, differentiated podocytes were transduced with the AT1A-N111S/Δ324 construct in 96 well plates. Six days after transduction, the cells were treated with either vehicle, 30 μM ML204, 30 μM AC1903 or 50 μM NSC23677 for 36 hours. […]

The target in another assay is T1, TRPC5 channel (Rattus norvegicus, UniProt Q8VD38).
T1 construct: Acutely isolated glomeruli were prepared as described above; from tissue; host or cells: acutely isolated glomeruli (podocytes) of AT1R Tg and WT rats
T1 sequence (Q8VD38 1-974): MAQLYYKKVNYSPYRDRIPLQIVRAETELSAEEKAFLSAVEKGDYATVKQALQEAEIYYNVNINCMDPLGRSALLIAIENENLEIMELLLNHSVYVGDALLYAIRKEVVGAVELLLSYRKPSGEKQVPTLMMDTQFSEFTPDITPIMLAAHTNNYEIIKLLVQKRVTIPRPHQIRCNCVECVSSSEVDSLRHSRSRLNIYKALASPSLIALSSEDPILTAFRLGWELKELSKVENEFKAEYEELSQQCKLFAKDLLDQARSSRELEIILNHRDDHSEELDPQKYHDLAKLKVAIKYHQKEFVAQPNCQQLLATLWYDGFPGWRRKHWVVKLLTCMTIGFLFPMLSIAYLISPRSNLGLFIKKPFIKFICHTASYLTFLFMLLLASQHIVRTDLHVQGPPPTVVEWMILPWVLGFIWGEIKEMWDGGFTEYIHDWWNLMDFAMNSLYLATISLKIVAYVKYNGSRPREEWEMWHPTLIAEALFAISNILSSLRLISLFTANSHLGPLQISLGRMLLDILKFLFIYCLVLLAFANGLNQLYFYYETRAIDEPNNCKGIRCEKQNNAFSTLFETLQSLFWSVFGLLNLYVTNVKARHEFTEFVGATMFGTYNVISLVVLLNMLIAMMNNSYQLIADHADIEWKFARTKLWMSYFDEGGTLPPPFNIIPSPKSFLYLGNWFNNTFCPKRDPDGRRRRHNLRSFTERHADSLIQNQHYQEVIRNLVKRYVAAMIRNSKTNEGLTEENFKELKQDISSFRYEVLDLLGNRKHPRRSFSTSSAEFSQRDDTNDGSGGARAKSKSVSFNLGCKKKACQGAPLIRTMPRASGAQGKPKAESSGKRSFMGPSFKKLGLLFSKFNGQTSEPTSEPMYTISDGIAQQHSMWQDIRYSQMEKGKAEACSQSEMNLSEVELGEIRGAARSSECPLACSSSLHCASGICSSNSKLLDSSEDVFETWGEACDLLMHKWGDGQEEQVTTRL
Nature of the assay: Glomerular inside-out single-channel recordings, riluzole-activated TRPC5 channel activity. The class given is cell-based. As to conditions: Rilu 3 μM. The procedure: Acute glomeruli isolation and Ca^2+-imaging: WT and AT1R Tg littermates were killed and kidneys were quickly dissected and washed with ice-cold PBS. After isolation using the sieving technique as previously described (11), glomeruli were incubated with the Ca^2+ indicator Fura2-AM (1 μM; Invitrogen) at 37° C. for 15 min. The extracellular solution for Ca^2+-imaging contained (in mM) 140 NaCl, 5 KCl, 10 HEPES, 2 MgCl2, 2 CaCl2, 10 glucose, with pH7.4 adjusted with NaOH. Glomerular Ca^2+-imaging was performed using an inverted microscope (Olympus IX70) with a high-speed CCD camera (Hamamatsu Photonics). Images were taken and analyzed using the Metafluor software (Molecular Devices). It should be noted that Fura-2 is most often taken up by podocytes at the periphery of the isolated glomerulus, but the specificity of recordings in podocytes is best confirmed by patch clamp electrophysiology, as described below.
Glomerular single-channel recordings: Acutely isolated glomeruli were prepared as described above. Single-channel recordings were carried out using an Axopatch 200B and Digidata 1550A (Molecular Devices). Bath and pipette solutions for glomerular single-channel recording contained (in mM) 135 CH3SO3Na, 5 CsCl, 2 CaCl2, 1 MgCl2, 10 HEPES, and 10 glucose with pH7.4 adjusted with NaOH. Once in the inside-out configuration, the bath solution was replaced by intracellular solution, containing (in mM) 135 CH3SO3Cs, 10 CsCl, 3 MgATP, 0.2 EGTA, 0.13 CaCl2, and 10 HEPES with pH 7.4 adjusted with CsOH. Patch pipettes, with resistance of 4-8 MΩ, were prepared using a two step-protocol (P-97, Sutter Instrument). Pipettes were fire-polished before use. For inside-out configuration, a giga-seal (>10 GΩ) was established prior to membrane rupture. Data was acquired at 10 kHz sampling frequency, and filtered with low-pass filtering at 1 kHz. Holding membrane potential was at −60 mV. Single-channel analysis was carried out using Clampfit 10.4 software (Molecular Devices).

Regarding `c1ccc(Cn2c(NCc3ccco3)nc3ccccc32)cc1` [AC1903], in the assay with caAT1R podocytes, the “caAT1R-induced ROS generation” value was “blocked caAT1R-induced ROS generation”. Also, at TRPC5 channel (AT1R Tg rats, Advanced, AC1903 1 μM), the “block of TRPC5 channel activity, inside-out recordings in intact glomeruli” value is reported as “blocks TRPC5 channel activity”.
Regarding `Cc1cc(N2CCCCC2)nc2ccccc12` [ML204, reference compound], the “caAT1R-induced ROS generation” value in the assay with caAT1R podocytes is on record as “blocked caAT1R-induced ROS generation”. In addition, the “inhibition of riluzole-activated channel activity, inside-out recordings of podocytes” value against TRPC5 channel (AT1R Tg rat glomeruli at disease onset (Onset), ML204 1 μM) is listed as “significant ML204 inhibition of channel activity”. Besides, the “inhibition of riluzole-activated conductance, inside-out recordings of podocytes” value on TRPC5 channel (AT1R Tg rat glomeruli, established disease (Advanced), ML204 1 μM) is reported as “inhibition of a much greater riluzole-activated conductance”.
